# From BigSolDB 2.1
# Details: in water
structure (smiles),measurement,setting,value
O=C(O)c1cc(O)c(O)c(O)c1,solubility (mole fraction),298 K,0.00158
same,solubility (mole fraction),303 K,0.00176
same,solubility (mole fraction),308 K,0.00203
same,solubility (mole fraction),313 K,0.00248
same,solubility (mole fraction),318 K,0.00311
same,solubility (mole fraction),323 K,0.00433
same,solubility (mole fraction),328 K,0.00557
same,solubility (mole fraction),333 K,0.00712
same,solubility (mole fraction),338 K,0.00898
same,solubility (mole fraction),343 K,0.0126
